How the values were obtained:
[1] = system: CHO; assay: Cytotoxicity against CHO cells transfected with human BACE1 and human APP with Swedish mutation at 1 nM to 10 uM by MTT assay; assay type: cell-based, Cricetulus griseus; settings: chinese hamster, 0.001 µM
[2] = system: Mus musculus; assay: Antialzheimer's disease activity in mouse cortex assessed as inhibition of beta-secretase mediated amyloid beta1-42 production at 1.5 mg/kg; assay type: functional
[3] = system: Mus musculus; assay: Antialzheimer's disease activity in mouse cortex assessed as inhibition of beta-secretase mediated amyloid beta1-42 production at 3 mg/kg; assay type: functional
[4] = system: Mus musculus; assay: Antialzheimer's disease activity in mouse hippocampus assessed as inhibition of beta-secretase mediated amyloid beta1-42 production at 1.5 mg/kg; assay type: functional
[5] = system: Mus musculus; assay: Antialzheimer's disease activity in mouse hippocampus assessed as inhibition of beta-secretase mediated amyloid beta1-42 production at 3 mg/kg; assay type: functional
[6] = target: T1, Beta-secretase 1 (Homo sapiens, UniProt P56817); assay: Inhibition of recombinant human BACE1 using Eu-CEVNLDAEFK-Qsy7 as substrate by HTRF assay
T1 sequence (P56817 whole entry): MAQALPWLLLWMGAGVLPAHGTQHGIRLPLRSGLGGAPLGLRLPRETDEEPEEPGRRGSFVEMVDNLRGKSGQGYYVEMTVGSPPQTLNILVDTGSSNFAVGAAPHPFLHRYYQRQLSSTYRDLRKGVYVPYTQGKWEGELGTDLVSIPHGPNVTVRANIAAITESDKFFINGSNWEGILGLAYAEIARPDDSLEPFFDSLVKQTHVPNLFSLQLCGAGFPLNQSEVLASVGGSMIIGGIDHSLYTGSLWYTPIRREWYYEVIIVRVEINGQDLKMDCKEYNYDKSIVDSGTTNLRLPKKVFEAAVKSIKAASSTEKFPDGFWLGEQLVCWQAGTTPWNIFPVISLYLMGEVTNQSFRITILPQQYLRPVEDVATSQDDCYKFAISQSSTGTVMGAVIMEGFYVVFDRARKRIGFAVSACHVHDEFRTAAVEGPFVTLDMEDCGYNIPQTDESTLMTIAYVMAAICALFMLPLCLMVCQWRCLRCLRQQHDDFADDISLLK

[7] = target: T1, Beta-secretase 1
[8] = target: T1, Beta-secretase 1; remark: listed apart in the source
[9] = target: T1, Beta-secretase 1; remark: listed apart in the source
[10] = target: T1, Beta-secretase 1; remark: listed apart in the source
[11] = target: T1, Beta-secretase 1; remark: listed apart in the source
[12] = target: T1, Beta-secretase 1; remark: listed apart in the source
[13] = target: T1, Beta-secretase 1; remark: listed apart in the source
[14] = target: T1, Beta-secretase 1; remark: listed apart in the source
[15] = target: T1, Beta-secretase 1; remark: listed apart in the source
[16] = target: T1, Beta-secretase 1; remark: listed apart in the source
[17] = target: T1, Beta-secretase 1; remark: listed apart in the source
[18] = target: T1, Beta-secretase 1; remark: listed apart in the source

Structure (SMILES) | IC50 [6] [nM] | RFU [7] | RFU [8] | RFU [9] | RFU [10] | RFU [11] | RFU [12] | RFU [13] | RFU [14] | RFU [15] | RFU [16] | RFU [17] | RFU [18] | Activity [1] | inhibition in vivo at 1.5 mg/kg [2] [%] | inhibition in vivo at 3 mg/kg [3] [%] | inhibition in vivo at 1.5 mg/kg [4] [%] | inhibition in vivo at 3 mg/kg [5] [%]
O=C(O[C@@H]1Cc2c(O)cc(O)cc2O[C@@H]1c1cc(O)c(O)c(O)c1)c1cc(O)c(O)c(O)c1 [EPIGALOCATECHIN GALLATE] |  |  |  |  |  |  |  |  |  |  |  |  |  | Non-toxic | 18.6 | 51.2 | 25.5 | 39.8
C[C@@H](NC(=O)c1cc(C(=O)N[C@@H](Cc2ccccc2)[C@H](O)CNC2CC2)cc(N(C)S(C)(=O)=O)c1)c1ccccc1 |  |  |  |  |  |  |  |  |  |  |  |  |  | Non-toxic |  |  |  | 

Second part, led by results:

IC50 [6] [nM] | RFU [7] | RFU [8] | RFU [9] | RFU [10] | RFU [11] | RFU [12] | RFU [13] | RFU [14] | RFU [15] | RFU [16] | RFU [17] | RFU [18] | Structure (SMILES) | Activity [1] | inhibition in vivo at 1.5 mg/kg [2] [%] | inhibition in vivo at 3 mg/kg [3] [%] | inhibition in vivo at 1.5 mg/kg [4] [%] | inhibition in vivo at 3 mg/kg [5] [%]
2810 | 36.2 | 69.4 | 10.5 | 14.2 | 73 | 79 | 21.7 | 26.8 | 99.8 | 99.8 | 94.8 | 99.8 | CSc1ccc2c(O)c(C(=O)Nc3ccc(N(CCO)CCO)cc3)cnc2c1 | Non-toxic |  |  |  | 
3840 | 34.1 | 63.4 | 6.14 | 20.2 | 67.3 | 73.8 | 22.2 | 26.2 | 97.7 | 98.3 | 81.5 | 98.7 | CSc1cccc2c(O)c(C(=O)Nc3ccc(N(CCO)CCO)cc3)cnc12 | Non-toxic |  |  |  | 
2270 | 39.1 | 65.1 | 4.36 | 13.7 | 72 | 77.2 | 24.9 | 26.2 | 87.4 | 90.1 | 80.3 | 87.4 | O=C(Nc1ccc(N(CCO)CCO)cc1)c1cnc2cc(Cl)cc(Cl)c2c1O | Non-toxic |  |  |  | 

Source: ChEMBL document CHEMBL1949659, “The green tea polyphenol (2)-epigallocatechin-3-gallate (EGCG) is not a β-secretase inhibitor” (Bioorg Med Chem Lett, 2012)
